Laboratory results as given in patent publication US20210321645A1, “STABILIZER FOR PYRROLOQUINOLINE QUINONE, COMPOSITION COMPRISING THE SAME, AND METHOD OF STABILIZATION” (Mitsubishi Gas Chemical Company, Inc., priority 2018, published 2021).

Test: Accelerated storage test of beverages, BioPQQ recovery by HPLC
Type: physicochemical
Details: beverages stored at 60° C. (Table 5), in words
Protocol: Analysis conditions of pyrroloquinoline quinone disodium salt
HPLC Conditions: • Shimadzu LC-2010 • Column: YMC-Pack ODS-A • Detection wavelength: 259 nm • Mobile phase: 30 mM acetic acid-70 mM ammonium acetate • Column temperature: 40° C.
(Accelerated Storage Test)
The sample of Example 1 was stored under the conditions of 60° C. for 2 weeks, which are equivalent to those of room temperature for 2 years. When the stored sample was subjected to HPLC, 97% of BioPQQ was recovered.

OC[C@@H](O)[C@@H](O)CO [Erythritol]
stabilizing effect on BioPQQ: high stabilizing effect
